From article PMC5045831 (Drugs in R&D, 2016)
Where two headings read alike, the source gives them in different places.

Tests used:
[1] = cited from earlier work
Evaluation of safety = type: in vivo, human; conditions: single oral 50 mg with water, lemon or Seville orange juice; nine subjects
[2] = type: in vivo, human
[3] = cited from earlier work; remark: listed apart in the source
[4] = cited from earlier work; remark: listed apart in the source
[5] = Seville orange juice compared with water
[6] = Seville orange juice, healthy volunteers

In the case of `COc1ccc2c(c1)[C@]13CCCC[C@@H]1[C@H](C2)N(C)CC3` [dextromethorphan], the change in bioavailability ([1]; with Seville orange juice, effects lasted 3 days) is given as “increased significantly”.
With `CCCc1nn(C)c2c(=O)[nH]c(-c3cc(S(=O)(=O)N4CCN(C)CC4)ccc3OCC)nc12` [sildenafil] the adverse effects reported (Evaluation of safety) was “without reporting any adverse effect”, the “change in Tmax” value [2, 5] was “non-significant changes” and the “increase in AUC0–∞” value [2, 5] was 44%. The “increase in Cmax” value [2, 5] was 8%, the “reduction of apparent oral clearance (CL/F)” value [2, 5] was 30% and the Tmax ([2]; male, human, plasma, po, 50 mg) was about 1 h. The change in bioavailability ([3]; co-administration of ciprofloxacin and clarithromycin) was “significantly increases” and the “increase in bioavailability and AUC” value ([3]; with grapefruit juice, Cmax unaffected) was 23%.
In the case of `CCOC(=O)C1=C(C)NC(C)=C(C(=O)OC)C1c1cccc(Cl)c1Cl` (centres unmarked) [felopdipine], the “increase in AUC” value ([4]; with Seville orange) is listed as 93% and the “increase in AUC” value ([4]; with grapefruit) is listed as 76%.
In the case of `COc1cc2c(c(OC)c1OC)-c1ccc(OC)c(=O)cc1[C@@H](NC(C)=O)CC2` [colchicine], the “decrease in AUC” value [1, 6] is listed as 20%, the “decrease in Cmax” value [1, 6] is listed as 24% and the “delay in Tmax” value [1, 6] is listed as 1 h.
